Active and inactive are the calls of the source. The calls are words filed in the database; no cut-off is given here.
What was measured:
[1] = biological target: T1, Heat shock protein HSP90 (Homo sapiens, UniProt P07900+P08238); experiment: Inhibition of FITC-geldanamycin binding to N-terminal GST-tagged Hsp90 (unknown origin) expressed in Escherichia coli at 100 uM measured after 15 mins by fluorescence polarization assay relative to control
[2] = biological target: T1, Heat shock protein HSP90; experiment: Binding affinity to N-terminal GST-tagged Hsp90 (unknown origin) expressed in Escherichia coli by ITC method
[3] = organism: Homo sapiens; experiment: Inhibition of N-terminal GST-tagged Hsp90 (unknown origin)-His-tagged Cdc37 middle domain (unknown origin) interaction expressed in Escherichia coli at 50 uM preincubated for 30 mins with GST-tagged Hsp90 (unknown origin) followed by addition of His-tagged Cdc37 middle domain (unknown origin) measured after 1 hr by GST-pulldown assay

Row | Compound | inhibition [1] [%] | Kd [2] [µM] | inhibition [3]
1 | CC(C)c1cc(C(=O)N2Cc3ccc(CN4CCN(C)CC4)cc3C2)c(O)cc1O | 99.8 |  | 
2 | Ac-HFGMLRR-NH2 | < 10 | 5.99 | Active
3 | Ac-KHFGMLRR-NH2 | < 10 | 7.41 | 

Further lines, results first:

Row | inhibition [1] [%] | Kd [2] [µM] | inhibition [3] | Compound
4 | < 10 | 6.9 |  | Ac-KHFGMLRRWDD-NH2
5 | < 10 | 10.07 |  | Ac-KHFGMLRRW-NH2
6 | < 10 | 21 |  | Ac-KHFGMLRRWD-NH2

Reference: ChEMBL document CHEMBL3868604, “Optimization and bioevaluation of Cdc37-derived peptides: An insight into Hsp90-Cdc37 protein-protein interaction modulators” (Bioorg Med Chem, 2017)
